Read-outs that look alike come from different tables or passages of the source.
Assays:
PfHsp70-z [1] = target: T1, PfHsp70-z (Plasmodium falciparum, UniProt Q8IC01); experiment: Suppression of heat-induced aggregation of MDH (chaperone function); type: biochemical; conditions: 48 °C; for effect on chaperone activity (MDH aggregation): 5 mM ADP/ATP
Method: (§1) The chaperone function of parasite Hsp70s was investigated by monitoring heat-induced aggregation of a model protein, malate dehydrogenase (MDH) from porcine heart (Sigma-Aldrich), as previously described, with minor modifications. Before conducting the assays, we first established that both purified preparations of PfHsp70-1 and PfHsp70-z were heat-stable at 48 °C. After this, we then investigated the effects of the chaperones (PfHsp70-1/PfHsp70-z) on the heat-induced aggregation of MDH. To determine the effects of EGCG on the chaperone function of the two proteins, the assay was repeated in the presence of 2.5 µM of EGCG. EGCG was used at this concentration (2.5 µM) because this was the lowest concentration at which it inhibited the function of the chaperones. […] For statistical analysis, a one-way ANOVA test was conducted using GraphPad Prism 6 (San Diego, CA, USA).

PfHsp70-1 [2] = target: T2, PfHsp70-1 (Plasmodium falciparum, UniProt Q8IB24); experiment: as above; type: biochemical; conditions: 48 °C; for effect on chaperone activity (MDH aggregation): 5 mM ADP/ATP
T2 sequence (Q8IB24 entry or part of it): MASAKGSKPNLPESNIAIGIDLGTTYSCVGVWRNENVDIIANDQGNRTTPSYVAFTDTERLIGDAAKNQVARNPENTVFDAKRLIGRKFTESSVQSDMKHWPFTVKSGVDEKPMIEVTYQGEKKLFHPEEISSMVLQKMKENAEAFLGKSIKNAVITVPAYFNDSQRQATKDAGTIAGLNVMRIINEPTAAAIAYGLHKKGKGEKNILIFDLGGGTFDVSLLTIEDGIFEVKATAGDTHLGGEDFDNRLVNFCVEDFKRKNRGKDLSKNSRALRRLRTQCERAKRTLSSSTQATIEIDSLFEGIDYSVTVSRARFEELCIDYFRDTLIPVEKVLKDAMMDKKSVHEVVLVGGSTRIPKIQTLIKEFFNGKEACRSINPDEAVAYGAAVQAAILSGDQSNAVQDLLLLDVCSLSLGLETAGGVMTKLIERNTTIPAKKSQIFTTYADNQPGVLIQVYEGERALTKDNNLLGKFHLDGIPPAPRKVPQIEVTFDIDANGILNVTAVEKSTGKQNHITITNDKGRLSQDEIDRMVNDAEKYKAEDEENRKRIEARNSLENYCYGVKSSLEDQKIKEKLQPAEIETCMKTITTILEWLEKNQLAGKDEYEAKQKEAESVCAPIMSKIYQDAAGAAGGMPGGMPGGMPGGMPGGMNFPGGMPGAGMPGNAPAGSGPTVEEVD
Method: as §1

P. falciparum 3D7 = experiment: Antiplasmodial pLDH growth inhibition assay; type: cell-based; conditions: Plasmodium falciparum
Method: P. falciparum 3D7 parasites were grown and maintained in continuous culture, as previously described, with minor modifications. The growth of P. falciparum 3D7-infected erythrocytes subjected to treatment with varying amounts (0, 0.156, 0.3125, 0.625, 1.25, 2.5, and 5 μM) of EGCG was monitored using the P. falciparum lactate dehydrogenase (pLDH) method, as previously described. As a control, Chloroquine, a known antimalarial drug, was used as a positive control in the assay. Serially-diluted EGCG was added to each culture batch. Uninfected erythrocytes that were similarly treated with EGCG were included to cater for possible lysis of erythrocytes exposed to EGCG. A blank consisting of media and EGCG was also set up. P. falciparum 3D7-infected erythrocytes that were not exposed to EGCG treatment were used as the viability control, representing ‘100% growth’. Analysis of the growth inhibition assay data was carried out using GraphPad Prism 6 (San Diego, CA, USA). The assay was repeated three times.

PfHsp70-1 [3] = target: T2, PfHsp70-1; experiment: SPR binding affinity to immobilised PfHsp70-1; conditions: EGCG vs ATP binding to PfHsp70-1
Method: (§2) The binding affinity of EGCG for the two P. falciparum Hsp70s was determined using a Bio-Rad ProteOn XPR36 system (Hercules, CA, USA), as previously described. Briefly, PfHsp70-1, PfHsp70-1NBD, and PfHsp70-z (as ligands) were separately immobilized onto an HTE chip at concentrations of 0.5 μg/mL and 1 μg/mL, respectively, in order to validate the data. […] In order to determine the association of EGCG with the respective ligand, the EGCG stock solution was prepared in deionised water. Aliquots of EGCG were prepared at final concentrations of 0, 125, 250, 500, 1000, and 2000 nM and injected at 100 μL/min into each horizontal channel. Association was allowed for 2 min and dissociation was monitored for 8 min. Data collected was double referenced using a buffer blank (buffer without EGCG) and a channel in which protein was excluded. Steady-state equilibrium constant data were processed and analysed using BioRad ProteOn Manager Version 3.1.0.6 (Hercules, CA, USA) and GE Healthcare Biosciences BIA evaluation Version 4.1.1 software (Uppsala, Sweden).

PfHsp70-z [4] = target: T1, PfHsp70-z; experiment: Basal ATPase activity, colourimetric Pi release; type: biochemical
Method: (§3) The basal ATPase activities of the parasite Hsp70s was assessed by a colourimetric-based method, as previously described. Briefly, 0.4 µM of recombinant proteins (PfHsp70-1/PfHsp70-z) was incubated in buffer HKMD (10 mM HEPES-KOH pH 7.5, 100 mM KCl, 2 mM MgCl2, 0.5 mM DTT) at 37 °C. […] The released inorganic phosphate was detected by adding 1.25% ammonium molybdate and 9% ascorbic acid and monitored using a M3 SpectraMax (Molecular Devices, Sunnyvale, CA, USA) spectrophotometer at 660 nm. To determine the effect of EGCG on the ATPase activity of parasite Hsp70s, the assay was repeated in the presence of varying amounts (0–5 µM) of EGCG.

PfHsp70-1 [5] = target: T2, PfHsp70-1; experiment: Basal ATPase activity, colourimetric Pi release; type: biochemical
Method: as §3

PfHsp70-z [6] = target: T1, PfHsp70-z; experiment: SPR binding affinity to immobilised PfHsp70-z; conditions: EGCG vs ATP binding to PfHsp70-z
Method: as §2

PfHsp70-z [7] = target: T1, PfHsp70-z; experiment: Tryptophan/tyrosine fluorescence, tertiary conformation; conditions: EGCG 0–5 μM
Method: (§4) We further exposed the two proteins to varying amounts (0–5 µM) of EGCG and monitored he perturbation of the tertiary structural conformations of the proteins using both tyrosine and tryptophan fluorescence, as previously described. The respective recombinant protein (PfHsp70-1 of PfHsp70-z) at a final concentration of 0.45 μg/mL was incubated in assay buffer A (25 mM HEPES-KOH pH 7.5, 100 mM KCl, 10 mM MgOAc) at 20 °C either in the absence or presence of variable EGCG levels (0–5 μM). […] Tryptophan fluorescence spectra were recorded between 300 nm and 400 nm after initial excitation at 295 nm using a JASCO FP-6300 spectrofluorometer (Dunmow, UK). The combined fluorescence of tyrosine and tryptophan was monitored after initial excitation at 285 nm. Subsequently, fluorescence was monitored at wavelengths between 300 nm and 400 nm using a JASCO FP-6300 spectrofluorometer. The resultant spectra were averaged for least 15 scans and processed after subtraction of the baseline scan (buffer in which protein was excluded). A control consisting of a buffer containing EGCG, but lacking protein was used to account for baseline fluorescence.

PfHsp70-1 [8] = target: T2, PfHsp70-1; experiment: as above; conditions: EGCG 0–5 μM
Method: as §4

T1 sequence (Q8IC01 entry or part of it): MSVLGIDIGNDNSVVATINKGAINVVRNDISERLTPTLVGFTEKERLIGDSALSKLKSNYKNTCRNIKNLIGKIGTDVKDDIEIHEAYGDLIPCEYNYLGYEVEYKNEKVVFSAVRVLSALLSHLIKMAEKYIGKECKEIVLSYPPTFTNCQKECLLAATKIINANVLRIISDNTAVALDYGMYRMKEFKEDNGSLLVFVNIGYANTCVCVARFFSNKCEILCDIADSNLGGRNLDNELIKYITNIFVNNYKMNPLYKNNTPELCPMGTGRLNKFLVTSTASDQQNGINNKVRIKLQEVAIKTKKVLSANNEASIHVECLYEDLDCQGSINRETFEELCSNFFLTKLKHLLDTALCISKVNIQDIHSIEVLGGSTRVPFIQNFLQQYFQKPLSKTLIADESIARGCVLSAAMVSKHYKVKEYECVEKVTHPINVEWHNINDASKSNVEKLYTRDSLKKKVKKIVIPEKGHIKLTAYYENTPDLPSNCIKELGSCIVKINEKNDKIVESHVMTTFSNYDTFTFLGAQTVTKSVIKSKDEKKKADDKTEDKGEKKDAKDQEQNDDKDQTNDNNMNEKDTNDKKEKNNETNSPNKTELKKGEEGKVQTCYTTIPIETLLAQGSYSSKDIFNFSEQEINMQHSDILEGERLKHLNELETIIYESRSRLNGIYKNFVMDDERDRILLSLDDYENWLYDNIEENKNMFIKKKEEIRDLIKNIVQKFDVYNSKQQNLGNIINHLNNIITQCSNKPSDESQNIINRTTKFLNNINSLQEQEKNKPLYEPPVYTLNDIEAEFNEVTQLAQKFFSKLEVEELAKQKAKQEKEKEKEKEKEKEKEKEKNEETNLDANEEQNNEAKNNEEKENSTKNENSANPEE

Nc1ncnc2c1ncn2[C@@H]1O[C@H](COP(=O)(O)OP(=O)(O)O)[C@@H](O)[C@H]1O [ADP]
effect on chaperone activity (MDH aggregation) (PfHsp70-z [1]): did not alter the chaperone activity
effect on chaperone activity (MDH aggregation) (PfHsp70-1 [2]): did not alter the chaperone activity

Nc1ncnc2c1ncn2[C@@H]1O[C@H](COP(=O)(O)OP(=O)(O)OP(=O)(O)O)[C@@H](O)[C@H]1O [ATP]
effect on chaperone activity (MDH aggregation) (PfHsp70-z [1]): not affecting the activity
effect on chaperone activity (MDH aggregation) (PfHsp70-1 [2]): did inhibit the activity

O=C(O[C@@H]1Cc2c(O)cc(O)cc2O[C@@H]1c1cc(O)c(O)c(O)c1)c1cc(O)c(O)c(O)c1 [EGCG, (−)-Epigallocatechin-3-gallate]
IC50 (P. falciparum 3D7; 3D7, blood stages, pLDH, read-out: IC50 parasite growth): 2.9 µM
effect on capability to suppress heat-induced aggregation of MDH (PfHsp70-z [1]; 2.5 µM EGCG): abrogated
lowest concentration at which it inhibited the function of the chaperones (PfHsp70-z [1]; MDH aggregation): 2.5 µM
effect on capability to suppress heat-induced aggregation of MDH (PfHsp70-1 [2]; 2.5 µM EGCG): abrogated
lowest concentration at which it inhibited the function of the chaperones (PfHsp70-1 [2]; MDH aggregation): 2.5 µM
fold higher affinity than ATP (PfHsp70-1 [3]): approximately 10 fold
Ki (PfHsp70-z [4]): 2.34 µM
Vmax (PfHsp70-z [4]; EGCG 0.156 μM): 20.58 (±0.5) nmol/min/mg
Vmax (PfHsp70-z [4]; EGCG 0.3125 μM): 18.46 (±0.3) nmol/min/mg
Vmax (PfHsp70-z [4]; EGCG 0.625 μM): 19.66 (±0.5) nmol/min/mg
Vmax (PfHsp70-z [4]; EGCG 1.25 μM): 21.26 (±0.9) nmol/min/mg
Vmax (PfHsp70-z [4]; EGCG 2.5 μM): 18.88 (±0.6) nmol/min/mg
Vmax (PfHsp70-z [4]; EGCG 5.0 μM): 17.57 (±0.3) nmol/min/mg
Ki (PfHsp70-1 [5]): 1.72 µM
Vmax (PfHsp70-1 [5]; EGCG 0.156 μM): 28.22 (±1.5) nmol/min/mg
Vmax (PfHsp70-1 [5]; EGCG 0.3125 μM): 29.03 (±0.7) nmol/min/mg
Vmax (PfHsp70-1 [5]; EGCG 0.625 μM): 28.40 (±0.95) nmol/min/mg
Vmax (PfHsp70-1 [5]; EGCG 1.25 μM): 27.47 (±2.01) nmol/min/mg
Vmax (PfHsp70-1 [5]; EGCG 2.5 μM): 29.04 (±0.6) nmol/min/mg
Vmax (PfHsp70-1 [5]; EGCG 5.0 μM): 30.06 (±0.5) nmol/min/mg
fold higher affinity than ATP (PfHsp70-z [6]): approximately 10 fold
shift of peak wavelength, tryptophan and tyrosine fluorescence (PfHsp70-z [7]): red shift
shift of peak wavelength, tryptophan and tyrosine fluorescence (PfHsp70-1 [8]): red shift

CCN(CC)CCCC(C)Nc1ccnc2cc(Cl)ccc12 (stereo not shown) [chloroquine]
IC50 (P. falciparum 3D7; 3D7, read-out: IC50 parasite growth): 0.0085 µM

From article PMC6149709, “(−)-Epigallocatechin-3-Gallate Inhibits the Chaperone Activity of Plasmodium falciparum Hsp70 Chaperones and Abrogates Their Association with Functional Partners” (Molecules : A Journal of Synthetic Chemistry and Natural …, 2017)
